Laboratory results published in patent US10590140B2, “Tetrahydropyrimidodiazepine and dihydropyridodiazepine compounds for treating pain and pain related conditions” (ESTEVE PHARMACEUTICALS, S.A., priority 2016, dated 2020).
Where two headings read alike, the source gives them in different places.

What was measured:
[1] = target: human α2δ-1 subunit of Cav2.2 calcium channel (Homo sapiens (Human), UniProt P54289); assay: Binding assay to human α2δ-1 subunit of Cav2.2 calcium channel ([3H]-Gabapentin); settings: read-out: Ki (nM) α2δ-1
human α2δ-1 subunit of Cav2.2 calcium channel, sequence (P54289 25-1103): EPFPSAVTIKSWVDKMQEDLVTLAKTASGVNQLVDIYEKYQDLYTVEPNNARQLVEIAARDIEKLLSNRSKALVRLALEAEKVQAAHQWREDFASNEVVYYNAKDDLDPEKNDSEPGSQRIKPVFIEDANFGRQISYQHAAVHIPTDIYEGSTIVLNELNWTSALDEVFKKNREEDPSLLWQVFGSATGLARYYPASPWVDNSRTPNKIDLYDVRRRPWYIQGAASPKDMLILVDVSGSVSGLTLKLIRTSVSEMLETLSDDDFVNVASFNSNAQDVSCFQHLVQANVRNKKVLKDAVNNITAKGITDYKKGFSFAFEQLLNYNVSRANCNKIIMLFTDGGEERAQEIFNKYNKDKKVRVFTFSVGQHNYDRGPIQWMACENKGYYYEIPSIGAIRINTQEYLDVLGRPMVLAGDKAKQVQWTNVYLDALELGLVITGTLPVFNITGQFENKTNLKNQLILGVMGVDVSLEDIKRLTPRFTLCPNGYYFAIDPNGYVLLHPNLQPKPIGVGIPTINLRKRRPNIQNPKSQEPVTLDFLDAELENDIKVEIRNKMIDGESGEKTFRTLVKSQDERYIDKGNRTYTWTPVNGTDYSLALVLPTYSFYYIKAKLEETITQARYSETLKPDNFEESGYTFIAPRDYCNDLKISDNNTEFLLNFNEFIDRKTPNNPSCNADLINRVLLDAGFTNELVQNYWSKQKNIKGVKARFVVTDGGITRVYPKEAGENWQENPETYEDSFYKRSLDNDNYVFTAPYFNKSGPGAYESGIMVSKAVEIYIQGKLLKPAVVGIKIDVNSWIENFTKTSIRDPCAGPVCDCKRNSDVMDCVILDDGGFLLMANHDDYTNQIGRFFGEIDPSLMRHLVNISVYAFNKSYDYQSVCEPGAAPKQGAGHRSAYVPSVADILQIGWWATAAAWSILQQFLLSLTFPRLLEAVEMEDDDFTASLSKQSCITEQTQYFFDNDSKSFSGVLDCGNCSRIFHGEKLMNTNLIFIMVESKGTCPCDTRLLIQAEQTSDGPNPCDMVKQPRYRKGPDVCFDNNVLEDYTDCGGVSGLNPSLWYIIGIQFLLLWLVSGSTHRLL
Method in brief: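 Radioactivity on dried GF/C filters quantified by scintillation after filtration and three cold Tris-HCl (pH 7.4) washes. Incubation ran 60 min at 27° C with [3H]-gabapentin; 10 μM pregabalin gave nonspecific binding.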

[2] = target: human norepinephrine transporter (NET) (Homo sapiens (Human), UniProt P23975); assay: Binding assay to human norepinephrine transporter (NET) ([3H]-Nisoxetin); settings: Table 2, dual compounds; [3H]-Nisoxetin binding
human norepinephrine transporter (NET), sequence (P23975 whole entry): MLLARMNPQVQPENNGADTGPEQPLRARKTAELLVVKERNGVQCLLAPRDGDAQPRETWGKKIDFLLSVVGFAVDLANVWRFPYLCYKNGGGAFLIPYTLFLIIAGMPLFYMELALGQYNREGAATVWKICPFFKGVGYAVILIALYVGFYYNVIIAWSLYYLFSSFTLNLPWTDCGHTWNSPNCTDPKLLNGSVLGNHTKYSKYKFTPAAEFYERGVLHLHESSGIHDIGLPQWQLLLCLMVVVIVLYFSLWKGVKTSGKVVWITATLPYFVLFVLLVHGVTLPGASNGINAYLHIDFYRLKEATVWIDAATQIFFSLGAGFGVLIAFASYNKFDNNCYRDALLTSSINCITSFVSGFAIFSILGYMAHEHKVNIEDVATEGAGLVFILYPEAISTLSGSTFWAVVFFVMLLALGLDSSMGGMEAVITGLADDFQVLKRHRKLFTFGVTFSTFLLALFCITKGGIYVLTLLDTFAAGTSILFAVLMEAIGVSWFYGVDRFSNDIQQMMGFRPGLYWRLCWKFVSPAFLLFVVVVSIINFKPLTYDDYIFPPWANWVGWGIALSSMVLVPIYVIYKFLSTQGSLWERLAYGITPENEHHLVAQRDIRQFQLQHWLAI
Method in brief: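 NET-enriched membranes (5 μg) incubated with 5 nM [3H]-nisoxetin in 50 mM Tris-HCl, 120 mM NaCl, 5 mM KCl, pH 7.4, 60 min at 4 °C. Bound ligand separated by filtration on PEI-soaked GF/C and counted by scintillation; nonspecific binding defined with 1 μM competitor.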

[3] = Table 2, dual compounds, [3H]-Gabapentin binding
[4] = binding to α2δ-1, [3H]-Gabapentin

Row | Compound | Ki [1, 3] [nM] | Ki [1, 4] [nM] | Ki [2] [nM]
1 | CNCC[C@@H](OCc1cccc(N2CCN(C)c3nc(N)ncc3C2=O)c1)c1ccccc1 [Example 195, (R)-2-amino-9-methyl-6-(3-((3-(methylamino)-1-phenylpropoxy)methyl)phenyl)-6,7,8,9-tetrahydro-5H-pyrimido[4,5-e][1,4]diazepin-5-one] | 500 to 3000 | 100 to 500 | 500 to 1000
2 | CNCC(OCc1ccc(CN2CCN(C)c3nc(SC)ncc3C2=O)cc1)c1ccccc1 (stereo not drawn) [Example 374, 9-methyl-6-(4-((2-(methylamino)-1-phenylethoxy)methyl)benzyl)-2-(methylthio)-6,7,8,9-tetrahydro-5H-pyrimido[4,5-e][1,4]diazepin-5-one] | > 3000 | > 3000 | 100 to 500
